The text below walks through data of patent US20230019280A1, “SUBSTITUTED ISOINDOLONYL 2,2'-BIP[…], ANALOGUES THEREOF, AND METHODS USING SAME” (priority 2019, published 2023).

The subject of the assay is HBsAg. Description: HBsAg assay (inhibition of HBsAg in HepG2.2.15 cells). The class given is cell-based, hepatitis B virus. To be noted: read-out: sAg EC50; HepG2.2.15 cells; supernatant HBsAg by CLIA at day 6 after exposure of compounds. The method, then: Inhibition of HBsAg was determined in HepG2.2.15 cells. Cells were maintained in culture medium containing 10% fetal calf serum, […], Glutamine, penicillin/streptomycin. Cells were seeded in 96-well collagen-coated plate at a density of 30,000 cells/well. Serially diluted compounds were added to cells next day at the final DMSO concentration of 0.5%. Cells were incubated with compounds for 2-3 days, after which medium was removed. Fresh medium containing compounds was added to cells for additional 3-4 days. At day 6 after exposure of compounds, supernatant was collected, the HBsAg immunoassay (microplate-based chemiluminescence immunoassay kits, CLIA, Autobio Diagnosics Co., Zhengzhou, China, Catalog #CL0310-2) was used to determine the level of HBsAg according to manufactory instruction. Dose-response curves were generated and the EC50 value (effective concentrations that achieved 50% inhibitory effect) were determined using XLfit software. In addition, cells were seeded at a density of 5,000 cells/well for determination of cell viability in the presence and absence of compounds by using CellTiter-Glo reagent (Promega).
`CCC1c2cc(OC)c(OC)cc2C(=O)N1c1ccnc(-c2ncccn2)n1` (single isomer, unassigned) [Example 2, 2-([2,2′-Bipyrimidin]-4-yl)-3-ethyl-5,6-dimethoxyisoindolin-1-one]: the EC50 amounted to 13 nM. For `CCC1c2cc(OC)c(OC)cc2C(=O)N1c1ccnc(-c2ncccn2)n1` (single isomer, unassigned) [Example 3, 2-([2,2′-Bipyrimidin]-4-yl)-3-ethyl-5,6-dimethoxyisoindolin-1-one], the EC50 was 1000 nM. As for `CCC1c2cc(OC)c(C)cc2C(=O)N1c1ccnc(-c2ncccn2)n1` (single isomer, unassigned) [Example 4, 2-([2,2′-Bipyrimidin]-4-yl)-3-ethyl-5-methoxy-6-methylisoindolin-1-one], the figure is 8 nM. Consider `CCC1c2cc(OC)c(C)cc2C(=O)N1c1ccnc(-c2ncccn2)n1` (single isomer, unassigned) [Example 5, 2-([2,2′-Bipyrimidin]-4-yl)-3-ethyl-5-methoxy-6-methylisoindolin-1-one], for which the EC50 worked out at 1000 nM. In the case of `CCC1c2cc(OC)c(Cl)cc2C(=O)N1c1ccnc(-c2ncccn2)n1` (single isomer, unassigned) [Example 6, 2-([2,2′-Bipyrimidin]-4-yl)-6-chloro-3-ethyl-5-methoxyisoindolin-1-one], the EC50 is 14 nM.

Regarding `CCC1c2cc(OC)c(Cl)cc2C(=O)N1c1ccnc(-c2ncccn2)n1` (single isomer, unassigned) [Example 7, 2-([2,2′-Bipyrimidin]-4-yl)-6-chloro-3-ethyl-5-methoxyisoindolin-1-one], the EC50 came to 8000 nM. `CCC1c2c(F)cc(Cl)cc2C(=O)N1c1ccnc(-c2ncccn2)n1` (single isomer, unassigned) [Example 8, 2-([2,2′-Bipyrimidin]-4-yl)-6-chloro-3-ethyl-4-fluoroisoindolin-1-one]: the concentration giving a half-maximal response (EC50) was 10 nM. As for `CCC1c2c(F)cc(Cl)cc2C(=O)N1c1ccnc(-c2ncccn2)n1` (single isomer, unassigned) [Example 9, 2-([2,2′-Bipyrimidin]-4-yl)-6-chloro-3-ethyl-4-fluoroisoindolin-1-one], the figure is 5000 nM; as for `COc1ccc(C2c3cc(OC)c(OC)cc3C(=O)N2c2ccnc(-c3ncccn3)n2)cc1` (single isomer, unassigned) [Example 10, 2-([2,2′-Bipyrimidin]-4-yl)-5,6-dimethoxy-3-(4-methoxyphenyl)isoindolin-1-one], 13 nM; as for `COc1ccc(C2c3cc(OC)c(OC)cc3C(=O)N2c2ccnc(-c3ncccn3)n2)cc1` (single isomer, unassigned) [Example 11, 2-([2,2′-Bipyrimidin]-4-yl)-5,6-dimethoxy-3-(4-methoxyphenyl)isoindolin-1-one], 4000 nM. As for `COc1cccc(C2c3cc(OC)c(OC)cc3C(=O)N2c2ccnc(-c3ncccn3)n2)c1` (single isomer, unassigned) [Example 12, 2-([2,2′-Bipyrimidin]-4-yl)-5,6-dimethoxy-3-(3-methoxyphenyl)isoindolin-1-one], the figure is 5 nM; as for `COc1cccc(C2c3cc(OC)c(OC)cc3C(=O)N2c2ccnc(-c3ncccn3)n2)c1` (single isomer, unassigned) [Example 13, 2-([2,2′-Bipyrimidin]-4-yl)-5,6-dimethoxy-3-(3-methoxyphenyl)isoindolin-1-one], 1000 nM; as for `COc1cc2c(cc1OC)C(Cc1ccccc1)N(c1ccnc(-c3ncccn3)n1)C2=O` (single isomer, unassigned) [Example 14, 2-([2,2′-Bipyrimidin]-4-yl)-3-benzyl-5,6-dimethoxyisoindolin-1-one], 100 nM. In the case of `COc1cc2c(cc1OC)C(Cc1ccccc1)N(c1ccnc(-c3ncccn3)n1)C2=O` (single isomer, unassigned) [Example 15, 2-([2,2′-Bipyrimidin]-4-yl)-3-benzyl-5,6-dimethoxyisoindolin-1-one], the EC50 turned out to be 40000 nM. Consider `COc1cc2c(cc1OC)C(CCC(F)(F)F)N(c1ccnc(-c3ncccn3)n1)C2=O` (single isomer, unassigned) [Example 16, 2-([2,2′-Bipyrimidin]-4-yl)-5,6-dimethoxy-3-(3,3,3-trifluoropropyl)isoindolin-1-one], for which the EC50 came out at 30000 nM.

Regarding `COc1cc2c(cc1OC)C(CCC(F)(F)F)N(c1ccnc(-c3ncccn3)n1)C2=O` (single isomer, unassigned) [Example 17, 2-([2,2′-Bipyrimidin]-4-yl)-5,6-dimethoxy-3-(3,3,3-trifluoropropyl)isoindolin-1-one], the EC50 came to 20 nM. `COc1cc2c(cc1OC)C(c1ccc(C)nc1)N(c1ccnc(-c3ncccn3)n1)C2=O` (single isomer, unassigned) [Example 18, 2-([2,2′-Bipyrimidin]-4-yl)-5,6-dimethoxy-3-(6-methylpyridin-3-yl)isoindolin-1-one]: the EC50 amounted to 10 nM. As for `COc1cc2c(cc1OC)C(c1ccc(C)nc1)N(c1ccnc(-c3ncccn3)n1)C2=O` (single isomer, unassigned) [Example 19, 2-([2,2′-Bipyrimidin]-4-yl)-5,6-dimethoxy-3-(6-methylpyridin-3-yl)isoindolin-1-one], the figure is 390 nM.

Regarding `CCC1c2cc(Cl)cc(F)c2C(=O)N1c1ccnc(-c2ncccn2)n1` (single isomer, unassigned) [Example 20, 2-([2,2′-Bipyrimidin]-4-yl)-5-chloro-3-ethyl-7-fluoroisoindolin-1-one], the EC50 was determined as 45 nM. `CCC1c2cc(Cl)cc(F)c2C(=O)N1c1ccnc(-c2ncccn2)n1` (single isomer, unassigned) [Example 21, 2-([2,2′-Bipyrimidin]-4-yl)-5-chloro-3-ethyl-7-fluoroisoindolin-1-one]: the EC50 was found to be 25000 nM. Consider `COc1cc2c(cc1OC)C(c1ccccn1)N(c1ccnc(-c3ncccn3)n1)C2=O` (single isomer, unassigned) [Example 22, 2-([2,2′-Bipyrimidin]-4-yl)-5,6-dimethoxy-3-(pyridin-2-yl)isoindolin-1-one], for which the EC50 is 4 nM. In the case of `COc1cc2c(cc1OC)C(c1ccccn1)N(c1ccnc(-c3ncccn3)n1)C2=O` (single isomer, unassigned) [Example 23, 2-([2,2′-Bipyrimidin]-4-yl)-5,6-dimethoxy-3-(pyridin-2-yl)isoindolin-1-one] it was 500 nM; in that of `CCC1c2cc(OC)c(OC)cc2C(=O)N1c1ccnc(-c2ncccn2)c1` (single isomer, unassigned) [Example 33, 3-Ethyl-5,6-dimethoxy-2-(2-(pyrimidin-2-yl)pyridin-4-yl)isoindolin-1-one], 7 nM; in that of `CCC1c2cc(OC)c(OC)cc2C(=O)N1c1ccnc(-c2ncccn2)c1` (single isomer, unassigned) [Example 34, 3-Ethyl-5,6-dimethoxy-2-(2-(pyrimidin-2-yl)pyridin-4-yl)isoindolin-1-one], 62 nM.

Consider `COc1cc2c(cc1OC)C(CC(C)C)N(c1ccnc(-c3ncccn3)n1)C2=O` (single isomer, unassigned) [Example 40, 2-([2,2′-bipyrimidin]-4-yl)-3-isobutyl-5,6-dimethoxyisoindolin-1-one], for which the EC50 was found to be 10 nM. As for `COc1cc2c(cc1OC)C(CC(C)C)N(c1ccnc(-c3ncccn3)n1)C2=O` (single isomer, unassigned) [Example 41, 2-([2,2′-Bipyrimidin]-4-yl)-3-isobutyl-5,6-dimethoxyisoindolin-1-one], the figure is 1000 nM. As for `COc1cc2c(cc1OC)C(c1ccccc1)N(c1ccnc(-c3ncccn3)n1)C2=O` (single isomer, unassigned) [Example 43, 2-([2,2′-Bipyrimidin]-4-yl)-5,6-dimethoxy-3-phenylisoindolin-1-one], the EC50 was 1 nM. In the case of `COc1cc2c(cc1OC)C(c1ccccc1)N(c1ccnc(-c3ncccn3)n1)C2=O` (single isomer, unassigned) [Example 44, 2-([2,2′-Bipyrimidin]-4-yl)-5,6-dimethoxy-3-phenylisoindolin-1-one] it was 160 nM; in that of `CCC1c2cc(F)c(OC)cc2C(=O)N1c1ccnc(-c2ncccn2)n1` (single isomer, unassigned) [Example 49, 3-Ethyl-5-fluoro-6-methoxy-2-(2-pyrimidin-2-ylpyrimidin-4-yl)isoindolin-1-one], 10 nM; in that of `CCC1c2cc(F)c(OC)cc2C(=O)N1c1ccnc(-c2ncccn2)n1` (single isomer, unassigned) [Example 50, 3-Ethyl-5-fluoro-6-methoxy-2-(2-pyrimidin-2-ylpyrimidin-4-yl)isoindolin-1-one], 480 nM. In the case of `CCC1c2cc(OC)c(F)cc2C(=O)N1c1ccnc(-c2ncccn2)n1` (single isomer, unassigned) [Example 51, 2-([2,2′-Bipyrimidin]-4-yl)-3-ethyl-6-fluoro-5-methoxyisoindolin-1-one] it was 130 nM; in that of `CCC1c2cc(OC)c(F)cc2C(=O)N1c1ccnc(-c2ncccn2)n1` (single isomer, unassigned) [Example 52, 2-([2,2′-Bipyrimidin]-4-yl)-3-ethyl-6-fluoro-5-methoxyisoindolin-1-one], 400 nM; in that of `COCCC1c2cc(F)c(OC)cc2C(=O)N1c1ccnc(-c2ncccn2)n1` (single isomer, unassigned) [Example 53, 2-([2,2′-Bipyrimidin]-4-yl)-5-fluoro-6-methoxy-3-(2-methoxyethyl)isoindolin-1-one], 38 nM.
